Experimental findings from publication PMC5097156, “Potent and selective chemical probe of hypoxic signalling downstream of HIF-α hydroxylation via VHL inhibition” (Nature Communications, 2016) are described below.

Holding throughout (test): biochemical
Holding throughout (design): CEREP ExpresSProfile competition binding, remaining control specific binding of reference compound
Conditions in all cases: radioligand binding; read-out: Mean % of control specific binding (±sd)

The target in assay [1] is T1, M3 (h) (Homo sapiens, UniProt P20309).
T1 construct: gene CHRM3

Assay [2] deals with T2, kappa (KOP) (Rattus norvegicus, UniProt P34975).
T2 construct: gene Oprk1

For assay [3], the target named is T3, NOP (ORL1) (h) (Homo sapiens, UniProt P41146).
T3 construct: gene OPRL1

In assay [4] the target is CCR1 (h) (Homo sapiens, UniProt P32246).
For assay [5], the target named is T4, NK3 (h) (Homo sapiens, UniProt P29371).
T4 construct: gene TACR3

Assay [6] has as its target T5, AT1 (h) (Homo sapiens, UniProt P30556).
T5 construct: gene AGTR1

Assay [7] deals with T6, NTS1 (NT1) (h) (Homo sapiens, UniProt P30989).
T6 construct: gene NTSR1

For assay [8], the target named is T7, CB1 (h) (Homo sapiens, UniProt P21554).
T7 construct: gene CNR1

Assay [9] addresses T8, A1 (h) (Homo sapiens, UniProt P30542).
T8 construct: gene ADORA1

Assay [10] concerns the target T9, V1a (h) (Homo sapiens, UniProt P37288).
T9 construct: gene AVPR1A

Assay [11] concerns the target T10, beta 2 (h) (Homo sapiens, UniProt P07550).
T10 construct: gene ADRB2

The target of assay [12] is T11, CCK1 (CCKA) (h) (Homo sapiens, UniProt P32238).
T11 construct: gene CCKAR

The structures appear in SMILES notation.

T11 sequence (P32238 whole entry): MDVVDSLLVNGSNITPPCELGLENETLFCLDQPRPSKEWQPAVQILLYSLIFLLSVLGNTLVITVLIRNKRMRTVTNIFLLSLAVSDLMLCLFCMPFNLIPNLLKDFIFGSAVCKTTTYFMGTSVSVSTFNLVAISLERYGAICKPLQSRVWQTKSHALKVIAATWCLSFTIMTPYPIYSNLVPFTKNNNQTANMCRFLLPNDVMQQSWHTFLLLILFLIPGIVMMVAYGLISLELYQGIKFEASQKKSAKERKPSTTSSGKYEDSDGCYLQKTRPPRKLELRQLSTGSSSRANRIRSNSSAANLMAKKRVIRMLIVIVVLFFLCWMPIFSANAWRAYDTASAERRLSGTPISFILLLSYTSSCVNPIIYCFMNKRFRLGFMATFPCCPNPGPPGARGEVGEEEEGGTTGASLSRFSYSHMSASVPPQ
Sequence of CCR1 (h) (P32246 whole entry): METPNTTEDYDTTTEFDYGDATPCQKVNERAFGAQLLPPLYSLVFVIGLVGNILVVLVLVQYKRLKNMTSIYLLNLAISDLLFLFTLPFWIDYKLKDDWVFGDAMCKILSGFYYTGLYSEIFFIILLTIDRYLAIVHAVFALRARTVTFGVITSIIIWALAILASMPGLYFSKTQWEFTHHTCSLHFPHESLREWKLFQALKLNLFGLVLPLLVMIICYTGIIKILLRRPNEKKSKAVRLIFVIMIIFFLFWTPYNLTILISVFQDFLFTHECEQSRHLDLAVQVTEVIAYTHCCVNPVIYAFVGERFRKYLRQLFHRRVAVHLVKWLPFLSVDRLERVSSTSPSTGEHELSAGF
T2 sequence (P34975 whole entry): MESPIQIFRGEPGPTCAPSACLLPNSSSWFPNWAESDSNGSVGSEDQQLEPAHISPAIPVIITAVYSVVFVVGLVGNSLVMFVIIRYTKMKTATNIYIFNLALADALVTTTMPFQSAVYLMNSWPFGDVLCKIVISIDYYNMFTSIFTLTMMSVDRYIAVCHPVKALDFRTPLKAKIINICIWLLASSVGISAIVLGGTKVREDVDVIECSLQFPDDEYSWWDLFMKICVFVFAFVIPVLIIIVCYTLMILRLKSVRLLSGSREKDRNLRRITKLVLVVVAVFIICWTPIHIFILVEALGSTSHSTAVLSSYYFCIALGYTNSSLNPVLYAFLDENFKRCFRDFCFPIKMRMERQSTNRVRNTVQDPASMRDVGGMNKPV
T5 sequence (P30556 whole entry): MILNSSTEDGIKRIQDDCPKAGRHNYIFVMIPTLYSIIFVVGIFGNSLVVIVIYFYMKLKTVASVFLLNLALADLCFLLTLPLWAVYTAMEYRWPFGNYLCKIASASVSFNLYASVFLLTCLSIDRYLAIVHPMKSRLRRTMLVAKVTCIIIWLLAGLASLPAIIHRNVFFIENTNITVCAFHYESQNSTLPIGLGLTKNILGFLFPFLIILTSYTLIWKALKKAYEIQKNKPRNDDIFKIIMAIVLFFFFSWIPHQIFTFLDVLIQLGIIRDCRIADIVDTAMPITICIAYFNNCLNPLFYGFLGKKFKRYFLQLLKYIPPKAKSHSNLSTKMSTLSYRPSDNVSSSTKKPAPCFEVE
T3 sequence (P41146 whole entry): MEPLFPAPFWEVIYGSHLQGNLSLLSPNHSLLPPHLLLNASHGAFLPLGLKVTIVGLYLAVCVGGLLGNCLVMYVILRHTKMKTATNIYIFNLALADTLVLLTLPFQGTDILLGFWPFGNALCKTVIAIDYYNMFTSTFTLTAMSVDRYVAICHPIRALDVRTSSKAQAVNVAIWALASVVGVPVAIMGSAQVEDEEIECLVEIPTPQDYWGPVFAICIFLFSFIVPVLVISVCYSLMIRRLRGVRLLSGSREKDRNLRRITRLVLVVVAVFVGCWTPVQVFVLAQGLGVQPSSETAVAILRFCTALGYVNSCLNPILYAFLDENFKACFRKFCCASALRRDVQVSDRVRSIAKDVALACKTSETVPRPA
T9 sequence (P37288 whole entry): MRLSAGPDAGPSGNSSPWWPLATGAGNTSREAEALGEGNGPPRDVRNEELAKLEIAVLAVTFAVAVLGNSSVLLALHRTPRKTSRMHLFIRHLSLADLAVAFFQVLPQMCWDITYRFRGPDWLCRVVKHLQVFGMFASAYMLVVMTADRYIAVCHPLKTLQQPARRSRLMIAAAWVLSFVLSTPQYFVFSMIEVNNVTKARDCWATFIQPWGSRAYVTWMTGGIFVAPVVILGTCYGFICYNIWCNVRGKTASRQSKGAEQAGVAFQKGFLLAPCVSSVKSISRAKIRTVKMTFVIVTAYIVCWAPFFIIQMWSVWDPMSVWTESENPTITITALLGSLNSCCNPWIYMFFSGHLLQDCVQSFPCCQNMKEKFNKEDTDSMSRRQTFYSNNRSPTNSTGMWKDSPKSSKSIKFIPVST
T7 sequence (P21554 whole entry): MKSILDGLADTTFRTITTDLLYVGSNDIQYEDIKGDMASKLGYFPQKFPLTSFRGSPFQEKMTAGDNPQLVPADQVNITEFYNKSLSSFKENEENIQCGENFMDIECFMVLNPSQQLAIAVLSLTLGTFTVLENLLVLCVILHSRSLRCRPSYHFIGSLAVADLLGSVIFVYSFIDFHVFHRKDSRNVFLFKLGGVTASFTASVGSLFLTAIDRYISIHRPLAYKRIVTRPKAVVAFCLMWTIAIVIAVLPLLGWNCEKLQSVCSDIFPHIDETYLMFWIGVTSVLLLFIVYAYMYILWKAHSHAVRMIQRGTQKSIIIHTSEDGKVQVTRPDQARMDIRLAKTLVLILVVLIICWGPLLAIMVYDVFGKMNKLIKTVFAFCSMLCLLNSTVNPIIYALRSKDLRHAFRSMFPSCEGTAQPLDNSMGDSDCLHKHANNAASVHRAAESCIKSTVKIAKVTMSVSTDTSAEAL
T8 sequence (P30542 whole entry): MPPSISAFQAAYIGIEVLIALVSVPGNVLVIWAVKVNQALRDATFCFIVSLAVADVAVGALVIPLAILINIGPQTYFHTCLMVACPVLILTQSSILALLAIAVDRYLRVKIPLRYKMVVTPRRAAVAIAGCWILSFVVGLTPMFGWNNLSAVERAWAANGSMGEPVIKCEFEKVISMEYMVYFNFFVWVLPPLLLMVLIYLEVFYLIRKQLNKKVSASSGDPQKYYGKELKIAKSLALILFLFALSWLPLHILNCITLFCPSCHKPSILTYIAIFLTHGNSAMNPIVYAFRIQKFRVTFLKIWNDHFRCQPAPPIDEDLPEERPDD
T1 sequence (P20309 whole entry): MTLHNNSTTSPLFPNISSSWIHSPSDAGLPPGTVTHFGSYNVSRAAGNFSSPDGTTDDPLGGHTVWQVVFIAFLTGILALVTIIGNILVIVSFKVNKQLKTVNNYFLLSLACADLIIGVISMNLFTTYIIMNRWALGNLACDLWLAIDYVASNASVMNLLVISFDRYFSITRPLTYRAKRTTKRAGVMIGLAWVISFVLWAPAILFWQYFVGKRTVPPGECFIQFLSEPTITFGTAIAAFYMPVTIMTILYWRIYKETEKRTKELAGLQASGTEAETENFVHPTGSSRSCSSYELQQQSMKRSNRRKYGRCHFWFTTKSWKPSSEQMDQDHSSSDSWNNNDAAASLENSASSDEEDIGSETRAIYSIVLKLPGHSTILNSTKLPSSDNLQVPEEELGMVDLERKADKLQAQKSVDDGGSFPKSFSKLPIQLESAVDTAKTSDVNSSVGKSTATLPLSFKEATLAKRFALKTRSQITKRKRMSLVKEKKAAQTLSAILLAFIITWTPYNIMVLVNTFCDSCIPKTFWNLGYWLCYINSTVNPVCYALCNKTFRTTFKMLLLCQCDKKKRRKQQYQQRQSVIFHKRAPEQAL
T10 sequence (P07550 whole entry): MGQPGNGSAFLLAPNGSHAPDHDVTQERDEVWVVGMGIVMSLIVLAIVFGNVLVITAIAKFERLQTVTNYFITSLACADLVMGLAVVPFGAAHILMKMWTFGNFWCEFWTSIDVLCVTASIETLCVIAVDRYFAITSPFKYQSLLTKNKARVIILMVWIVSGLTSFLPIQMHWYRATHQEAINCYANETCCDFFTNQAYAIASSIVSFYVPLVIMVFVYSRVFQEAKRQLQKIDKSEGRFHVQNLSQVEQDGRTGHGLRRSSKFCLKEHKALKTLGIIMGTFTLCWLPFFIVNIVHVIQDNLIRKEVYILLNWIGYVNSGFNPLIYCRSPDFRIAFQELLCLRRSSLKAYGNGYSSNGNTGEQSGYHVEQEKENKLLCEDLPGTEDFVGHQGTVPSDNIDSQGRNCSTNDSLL
T4 sequence (P29371 whole entry): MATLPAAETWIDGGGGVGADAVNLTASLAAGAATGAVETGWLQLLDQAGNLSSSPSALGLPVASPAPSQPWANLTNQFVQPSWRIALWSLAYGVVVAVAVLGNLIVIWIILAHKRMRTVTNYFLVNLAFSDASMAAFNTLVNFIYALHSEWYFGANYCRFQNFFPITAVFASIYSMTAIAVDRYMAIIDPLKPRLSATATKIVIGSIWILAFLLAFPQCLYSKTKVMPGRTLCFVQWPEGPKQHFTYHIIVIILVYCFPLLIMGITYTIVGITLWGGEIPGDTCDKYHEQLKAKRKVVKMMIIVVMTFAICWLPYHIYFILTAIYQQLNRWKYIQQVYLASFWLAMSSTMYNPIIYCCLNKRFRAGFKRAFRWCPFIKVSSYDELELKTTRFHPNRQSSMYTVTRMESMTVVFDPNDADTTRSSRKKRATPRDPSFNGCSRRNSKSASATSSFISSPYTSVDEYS

For `Cc1ncsc1-c1ccc(CNC(=O)[C@@H]2C[C@@H](O)CN2C(=O)[C@@H](NC(=O)C2(C#N)CC2)C(C)(C)C)cc1` [VH298], the remaining binding at 50 µM was determined as 95% in [1]; 92% in [2]; 92% in assay [3]; 111% in [4]; 94% in assay [5]; 84% in assay [6]. Moreover, the remaining binding at 50 µM was determined as 103% in assay [7]; 115% in [8]; 90% in assay [9]; 95% in [10]; 95% in assay [11]; 127% in assay [12].
